Source: PMC6700280, “Identification of Novel 3-Hydroxy-pyran-4-One Derivatives as Potent HIV-1 Integrase Inhibitors Using in silico Structure-Based Combinatorial Library Design Approach” (Frontiers in Chemistry, 2019)
Like-named read-outs stand apart in the source and are kept apart here.

Assays:
[1] = MT-4/MTT cytotoxicity assay; type: cell-based, human; conditions: human, MT-4 cells; read-out: Cellular toxicity CC50
Description: (§1) The inhibitory effect of antiviral drugs on the HIV-induced cytopathic effect (CPE) in human lymphocyte MT-4 cell culture was determined by the MT-4/MTT-assay (Pauwels et al., [1988]). […] The 50% cell culture infective dose of the HIV strains was determined by titration of the virus stock using MT-4 cells. For the drug susceptibility assays, MT-4 cells were infected with 100–300 50% cell culture infective doses of the HIV strains in the presence of 5-fold serial dilutions of the antiviral drugs. […] In parallel, the concentration of the compound destroying 50% of the MT-4 cells, which is defined as the 50% cytotoxic concentration (CC50), was determined as well.

HIV-1 [2] = assay: MT-4/MTT anti-HIV assay (HIV-induced cytopathic effect); type: cell-based; conditions: Human immunodeficiency virus 1, MT4; MT-4 cells; read-out: HIV-1 activity inhibition EC50
Description: The inhibitory effect of antiviral drugs on the HIV-induced cytopathic effect (CPE) in human lymphocyte MT-4 cell culture was determined by the MT-4/MTT-assay (Pauwels et al., [1988]). This assay is based on the reduction of the yellow colored 3-(4,5-dimethylthiazol-2-yl)-2,5-diphenyltetrazolium bromide (MTT) by mitochondrial dehydrogenase of metabolically active cells to a blue formazan derivative, which can be measured spectrophotometrically. The 50% cell culture infective dose of the HIV strains was determined by titration of the virus stock using MT-4 cells. For the drug susceptibility assays, MT-4 cells were infected with 100–300 50% cell culture infective doses of the HIV strains in the presence of 5-fold serial dilutions of the antiviral drugs. The concentration of the compound achieving 50% protection against the CPE of HIV, which is defined as the 50% effective concentration (EC50), was determined. In parallel, the concentration of the compound destroying 50% of the MT-4 cells, which is defined as the 50% cytotoxic concentration (CC50), was determined as well.

HIV-1 IN [3] = target: T1, HIV-1 IN (Human immunodeficiency virus type 1 group M subtype B, UniProt P04585); assay: Overall HIV-1 IN integration assay (ELISA); type: biochemical
[4] = target: T2, HIV-1 IN strand transfer activity (Human immunodeficiency virus type 1 group M subtype B, UniProt P04585); assay: HIV-1 IN strand transfer assay (ELISA, pre-cleaved oligonucleotide substrate)
Description: The enzymatic integration reactions were carried out as previously described with minor modifications (Debyser et al., [2001]; Christ et al., [2011]). To determine the susceptibility of the HIV-1 IN enzyme to different compounds, an enzyme-linked immunosorbent assay (ELISA) adapted from Hwang et al. was used (Hwang et al., [2000]). The overall integration assay uses an oligonucleotide substrate for which one oligonucleotide (5′-[sequence]-3′) is labeled with biotin at the 3′ end and the other oligonucleotide (5′-[sequence]-3′) is labeled with digoxigenin at the 5′ end. For the strand transfer assay, a pre-cleaved oligonucleotide substrate (the second oligonucleotide lacks GT [underlined] at the 3′ end) was used. The IN enzyme was diluted in 750 mM NaCl, 10 mM Tris (pH: 7.6), 10% glycerol, and 1 mM β-mercaptoethanol. To perform the reaction, 4 μL of diluted IN (corresponding to a concentration of 1.6 μM) and 4 μL of annealed oligonucleotides (7 nM) were added in a final reaction volume of 40 μL containing 10 mM MgCl2, 5 mM dithiothreitol, 20 mM HEPES (pH 7.5), 5% polyethylene glycol, and 15% dimethyl sulfoxide. As such, the final concentration of IN in this assay was 160 nM. The reaction was carried out for 1 h at 37°C. Reaction products were denatured with 30 mM NaOH and detected by ELISA on avidin-coated plates.

MT-4 cells [5] = assay: MT-4/MTT cytotoxicity assay; type: cell-based, human
Description: as §1

HIV-1 IN [6] = target: T1, HIV-1 IN; parameters: method as in Sirous et al., 2019; conditions: read-out: Overall HIV-1 IN activity inhibition IC50; previously reported lead; ref Sirous et al., 2019; cited from earlier work
[7] = target: T2, HIV-1 IN strand transfer activity; parameters: method as in Sirous et al., 2019; conditions: read-out: HIV-1 IN strand transfer activity inhibition IC50; previously reported lead; ref Sirous et al., 2019; cited from earlier work
MT-4 cells [8] = tested on: MT-4 cells; parameters: method as in Sirous et al., 2019; conditions: previously reported lead, cited from earlier work; for CC50: ref Sirous et al., 2019, read-out: Cellular toxicity CC50; for TI (therapeutic index, CC50/EC50 ratio): ref Sirous et al., 2019
HIV-1 [9] = tested on: HIV-1; parameters: method as in Sirous et al., 2019; conditions: MT-4 cells; previously reported lead; ref Sirous et al., 2019; read-out: HIV-1 activity inhibition EC50; cited from earlier work

| SMILES | CC50 [1] [nM] | EC50 (HIV-1 [2]) [nM] | IC50 (HIV-1 IN [3]) [nM] | improvement in anti-IN potency compared to HPb (HIV-1 IN [3]; vs HPb IC50 = 0.37 μM) [fold] | IC50 [4] [nM] | TI (therapeutic index, CC50/EC50 ratio) (MT-4 cells [5]) | IC50 (HIV-1 IN [6]) [nM] | IC50 [7] [nM] | CC50 (MT-4 cells [8]) [nM] | TI (therapeutic index, CC50/EC50 ratio) (MT-4 cells [8]) | EC50 (HIV-1 [9]) [nM] |
| --- | --- | --- | --- | --- | --- | --- | --- | --- | --- | --- | --- |
| Cc1nnc(C(=O)NC(C)(C)c2nc(C(=O)NCc3ccc(F)cc3)c(O)c(=O)n2C)o1 [RLT, Raltegravir, reference compound] | > 18300 | 13 ± 8 | – | – | – | – | – | – | – | – | – |
| Cc1cc(=O)c(O)c(C(=O)NCc2cc(F)cc(-c3ccccn3)c2)o1 [HPCAR-28, N-(3-Fluoro-5-(pyridin-2-yl)benzyl)-3-hydroxy-6-methyl-4-oxo-4H-pyran-2-carboxamide] | > 250000 | 230 ± 180 | 65 ± 10 | 6 | 3370 ± 380 | >1,087 | – | – | – | – | – |
| Cc1cc(=O)c(O)c(C(=O)NCc2cccc(-n3cccc3)c2)o1 [HPCAR-142, N-(3-(1H-Pyrrol-1-yl)benzyl)-3-hydroxy-6-methyl-4-oxo-4H-pyran-2-carboxamide] | > 85400 | 4210 ± 520 | 1970 ± 1060 | – | 17490 ± 130 | >20.3 | – | – | – | – | – |
| Cc1nc(-c2cccc(CNC(=O)c3oc(C)cc(=O)c3O)c2)c[nH]1 [HPCAR-89, 3-Hydroxy-6-methyl-N-(3-(2-methyl-1H-imidazol-4-yl)benzyl)-4-oxo-4H-pyran-2 carboxamide] | > 125000 | 2340 ± 460 | 270 ± 100 | – | 4000 ± 340 | >53.4 | – | – | – | – | – |
| Cc1cc(=O)c(O)c(C(=O)NCc2ccc(Cl)cc2)o1 [HPd] | – | – | – | – | – | – | 700 ± 310 | 1540 ± 200 | 196000 ± 4400 | 100.3 | 1950 ± 930 |
| Cc1cc(=O)c(O)c(C(=O)NCc2ccc(F)cc2)o1 [HPb] | – | – | – | – | – | – | 370 ± 170 | 1405 ± 10 | > 250000 | >145 | 1720 ± 990 |
